Data set [1] in a line: In vitro cytotoxicity, resazurin assay. It is filed as cell-based, human. The note with it: human, 24 h; for viability at 24 h, 10 µg/mL: HeLa cell viability at 10 µg/mL, read-out: Viability % ± SD at 10 μg/mL; for viability at 24 h, 50 µg/mL: HeLa cell viability at 50 µg/mL, read-out: Viability % ± SD at 50 μg/mL. The method, then: (§1) The cytotoxicity of the compounds/extracts against HeLa (human cervix adenocarcinoma) cells (Cellonex, South Africa) was evaluated by plating the cells at a density of 2 × 10^4 cells per well in a DMEM medium supplemented with 10% foetal bovine serum and penicillin/streptomycin/amphotericin B antibiotics in 96-well plates. After incubating for 24 h at 37 °C in a humidified 5% CO2 incubator, the test samples were added at a final concentration of 50 µg/mL or 10 µg/mL to the cells in triplicate wells (final volume per well was 200 µL) and further incubated or 24 h. Subsequently, a 20 µL resazurin stock solution (0.6 mM resazurin in phosphate-buffered saline) was added to each well and, after a 4 h incubation, the fluorescence (Exc560/Emm590) was measured on a Spectramax M3 plate reader. The percentage cell viability in the treated wells relative to the wells containing the untreated control cells was calculated from the fluorescence values after subtracting the background readings obtained from the empty wells. Emetine was used as the positive control.
(Resazurin is reduced to fluorescent resorufin, in cell work by metabolically active cells.)

For data set [2], the system named is Plasmodium falciparum 3D7 clone. Description: In vitro antiplasmodial activity, parasite lactate dehydrogenase (pLDH) assay. Particulars: for viability at 10 µg/mL: 3D7, read-out: Viability % ± SD at 10 μg/mL; for viability at 50 µg/mL: 3D7, read-out: Viability % ± SD at 50 μg/mL. Here is the method: Malaria parasites (Plasmodium falciparum 3D7 clone) were maintained in an RPMI 1640 medium containing 2 mM L-glutamine and 25 mM Hepes (Lonza). The medium was further supplemented with 5% Albumax II, 20 mM glucose, 0.65 mM hypoxanthine, 60 µg/mL gentamycin, and 2–4% haematocrit human red blood cells. The parasites were cultured at 37 °C under an atmosphere of 5% CO2, 5% O2, and 90% N2 in a sealed T75 culture flask.
For the antiplasmodial activity, the extracts and isolated compounds were first tested at 50 µg/mL and 10 µg/mL in duplicate experiments. IC50 values determined from the dose-response curves were evaluated for the compounds only showing < 50% viability without cytotoxicity at 10 µg/mL. For the IC50 screening, a range of concentrations of the extracts and compounds starting from 100 µg/mL and extended by 3-fold serial dilution were tested in triplicate and standard deviations (SD) were derived where applicable. The parasite viability was determined by measuring the activity of parasite lactate dehydrogenase (pLDH) as described by Makler et al.. Serial dilutions of the extracts and compounds were added to the in vitro cultures of P. falciparum (3D7 clone) in 96-well plates (1% haematocrit, 2% parasitaemia) and incubated for 48 h. To 125 µL solutions containing a mixture of Malstat (0.18 M lactic acid, 0.13 mM 3-acetylpyridine adenine dinucleotide, 0.16% Triton X-100, and 44 mM Tris, pH 9) and NBT/PES (0.39 mM nitro blue tetrazolium and 0.05 mM phenazine ethosulfate), 20 µL of the incubated culture was then added in a fresh 96-well plate. […] The % parasite viability, as indicated by the pLDH activity in the treated wells compared with the untreated controls, was calculated from the absorbance values for each compound/extract. The parasitised RBCs in the absence of test compounds/drug were taken as the untreated control with 100% viability.

Data set [3] deals with HeLa (human cervix adenocarcinoma) cells. The data set can be described thus: In vitro cytotoxicity, resazurin assay. It is filed as cell-based. The note with it: for IC50: Homo sapiens, HeLa, positive control. Here is the method:
as §1

The test system of data set [4] is P. falciparum. Particulars: cited from earlier work.

Values joined by “and” are separate entries in the source; they are usually repeats but may differ in a detail not shown here. Equal values may be shown once. Read-outs that look alike come from different tables or passages of the source.

As to `COc1c(-c2ccc(O)c(O)c2)oc2cc(O)cc(O)c2c1=O` [3-O-Methylquercetin (4), 3-O-methylquercetin], in data set [1] (HeLa cells), the viability at 24 h, 10 µg/mL turned out to be 57.9 ± 5.2% and the viability at 24 h, 50 µg/mL worked out at 4.5 ± 0.1%. Besides, in data set [2], the viability at 10 µg/mL is 82.9 ± 3% and the viability at 50 µg/mL was found to be 21.9 ± 1.5%.
Consider `CCN(CC)CCCC(C)Nc1ccnc2cc(Cl)ccc12` (stereo not shown) [Chloroquine, reference compound], for which the IC50 in data set [2] (3D7, 48 h) was 0.014 µM; in data set [2] (3D7, read-out: IC50 values ranged), 0.01 to 0.05 µM.
On to `O=C1c2c(O)cc(O)cc2O[C@H](c2ccc(O)c(O)c2)[C@H]1O` [Dihydroquercetin (6), dihydroquercetin], for which the IC50 in data set [2] (3D7, 48 h) was 27.6 µg/mL and 90.7 µM.
For the compound `CC[C@H]1CN2CCc3cc(OC)c(OC)cc3[C@@H]2C[C@@H]1C[C@H]1NCCc2cc(OC)c(OC)cc21` [Emetine, reference compound], the IC50 in data set [3] (printed in the 10 µg/mL column) amounted to 0.04 µM; in data set [3] (printed in the 50 µg/mL column) it was 0.033 µM.
For `O=c1c(O)c(-c2ccc(O)cc2)oc2cc(O)cc(O)c12` [Kaempferol (10), kaempferol], in data set [4], the “antiplasmodial activity of common dietary flavonoids (reported)” value (“antiplasmodial activity … (reported)” for short) is “moderate to weak antiplasmodial activity”. In addition, in data set [2] (3D7, 48 h), the IC50 was 25 µg/mL and 87.3 µM.
As for `COC(=O)c1cc(O)c(O)c(O)c1` [Methyl gallate (9), methyl gallate], the “Viability % ± SD at 10 μg/mL” value in data set [3] (HeLa cell viability at 10 µg/mL, 24 h) came to 68.6 ± 2.0%. In data set [1], the viability at 24 h, 10 µg/mL amounted to 68% and the viability at 24 h, 50 µg/mL worked out at 2 ± 0.2%. Besides, in data set [4], the “antiplasmodial activity and selectivity (reported by other investigators)” value is reported as “good selective antiplasmodial activity”; the combination with quinine entry is “act in synergy with quinine”. Besides, the half-maximal inhibitory concentration (IC50) in data set [2] (3D7, 48 h) was 1.2 µg/mL and 6.52 µM. Besides, in data set [2], the viability at 10 µg/mL worked out at 26.9 ± 0.7% and the viability at 50 µg/mL worked out at 17.7 ± 1.5%.
`O=c1cc(-c2ccc(O)cc2)oc2cc(O)cc(O)c12` [apigenin]: the “antiplasmodial activity … (reported)” value in data set [4] was “moderate to weak antiplasmodial activity”.
For the compound `Oc1cc(O)c2c(c1)O[C@H](c1cc(O)c(O)c(O)c1)[C@@H](O)C2` [gallocatechin (8), gallocatechin], in data set [4], the “activity against P. falciparum (previously reported)” value is “inactive”.
Consider `C[C@]1(O)CC[C@H]2[C@@H]3CCC4=CC(=O)CC[C@@H]4[C@H]3CC[C@@]21C` [lutenin, reference compound], for which the “antiplasmodial activity … (reported)” value in data set [4] is recorded as “moderate to weak antiplasmodial activity”.
Turning to `O=c1c(O)c(-c2cc(O)c(O)c(O)c2)oc2cc(O)cc(O)c12` [myricetin, reference compound], the “antiplasmodial activity … (reported)” value in data set [4] is recorded as “moderate to weak antiplasmodial activity”.
Regarding `O=c1c(O)c(-c2ccc(O)c(O)c2)oc2cc(O)cc(O)c12` [quercetin], in data set [4], the “antiplasmodial activity … (reported)” value is listed as “moderate to weak antiplasmodial activity”.
On to pinoresinol [Pinoresinol (12)], for which, in data set [4], the “activity against P. falciparum (previously reported)” value was “inactive”.

As a reminder, the IC50 is the concentration at which inhibition is half-maximal.
